How the values were obtained:
human TPH1 = biological target: T1, human TPH1 (Homo sapiens, UniProt P17752); assay: biochemical
T1 sequence (P17752 1-444): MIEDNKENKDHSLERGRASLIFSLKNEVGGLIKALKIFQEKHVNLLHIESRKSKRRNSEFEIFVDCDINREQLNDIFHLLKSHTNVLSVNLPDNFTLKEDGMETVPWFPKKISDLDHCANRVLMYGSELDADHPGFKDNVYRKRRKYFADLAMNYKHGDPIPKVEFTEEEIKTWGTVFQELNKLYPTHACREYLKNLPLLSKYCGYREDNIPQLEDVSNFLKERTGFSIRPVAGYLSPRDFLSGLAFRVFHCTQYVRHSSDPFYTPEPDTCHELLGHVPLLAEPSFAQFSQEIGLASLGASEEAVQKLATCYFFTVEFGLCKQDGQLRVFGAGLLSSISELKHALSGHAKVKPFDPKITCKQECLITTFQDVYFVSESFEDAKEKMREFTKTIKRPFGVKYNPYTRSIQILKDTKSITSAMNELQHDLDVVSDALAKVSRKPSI
In short: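 Inhibition is derived from 5-hydroxy-L-tryptophan fluorescence (540 nm emission, 300 nm excitation) after perchloric acid stop, relative to DMSO vehicle. Recombinant full-length human enzyme (40-80 nM) reacts with 40 μM tryptophan plus 100 μM methyltetrahydropterin, pH 7.6 Tris/DTT/catalase, 15° C, 60 min.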

5HT = settings: mice, cited from earlier work

Compound	IC50 (human TPH1) [nM]	further results
COc1ccc(C2c3c(nc4ccc(Br)cn34)CCN2C(=O)COc2ccc3ccccc3c2)cc1OC (stereo not shown) [Example 10.1.1, 1-(8-bromo-1-(3,4-dimethoxyphenyl)-3,4-dihydroimidazo[1,2-a:5,4-c′]dipyridin-2(1H)-yl)-2-(naphthalen-2-yloxy)ethan-1-one]	124	–
COc1ccc(C2c3c(nc4ccc(F)cn34)CCN2C(=O)COc2ccc3ccccc3c2)cc1OC (stereo not shown) [Example 11.1.1, 1-(1-(3,4-dimethoxyphenyl)-8-fluoro-3,4-dihydroimidazo[1,2-a:5,4-c′]dipyridin-2(1H)-yl)-2-(naphthalen-2-yloxy)ethan-1-one]	122	–
CS(=O)(=O)Nc1ccc(OCC(=O)N2CCc3nc4ccc(F)cn4c3C2c2ccc(Cl)cc2F)c(Cl)n1 (stereo not shown) [Example 11.2.1, N-(6-chloro-5-(2-(1-(4-chloro-2-fluorophenyl)-8-fluoro-3,4-dihydroimidazo[1,2-a:5,4-c′]dipyridin-2(1H)-yl)-2-oxoethoxy)pyridin-2-yl)methanesulfonamide]	72	–
CCc1nc(NS(C)(=O)=O)ccc1OCC(=O)N1CCc2nc3ccc(F)cn3c2C1c1sc(C)nc1C (stereo not shown) [Example 11.3.1, N-(5-(2-(1-(2,4-dimethylthiazol-5-yl)-8-fluoro-3,4-dihydroimidazo[1,2-a:5,4-c′]dipyridin-2(1H)-yl)-2-oxoethoxy)-6-ethylpyridin-2-yl)methanesulfonamide]	48	–
COc1ccc(C2c3c(nc4ccc(C(F)(F)F)cn34)CCN2C(=O)COc2ccc3ccccc3c2)cc1OC (stereo not shown) [Example 12.1.1, 1-(1-(3,4-dimethoxyphenyl)-8-(trifluoromethyl)-3,4-dihydroimidazo[1,2-a:5,4-c′]dipyridin-2(1H)-yl)-2-(naphthalen-2-yloxy)ethan-1-one]	183	–
CS(=O)(=O)Nc1ccc(OCC(=O)N2CCc3nc4cc(F)ccn4c3C2c2ccc(Cl)cc2F)c(Cl)n1 (stereo not shown) [Example 14.1.1, N-(6-chloro-5-(2-(1-(4-chloro-2-fluorophenyl)-7-fluoro-3,4-dihydroimidazo[1,2-a:5,4-c′]dipyridin-2(1H)-yl)-2-oxoethoxy)pyridin-2-yl)methanesulfonamide]	74	–
CS(=O)(=O)Nc1ccc(OCC(=O)N2CCc3nc4c(F)cccn4c3C2c2ccc(Cl)cc2F)c(Cl)n1 (stereo not shown) [Example 15.1.1, N-(6-chloro-5-(2-(1-(4-chloro-2-fluorophenyl)-6-fluoro-3,4-dihydroimidazo[1,2-a:5,4-c′]dipyridin-2(1H)-yl)-2-oxoethoxy)pyridin-2-yl)methanesulfonamide]	2650	–
CCc1nc(C)ccc1OCC(=O)N1CCc2nc3cccnn3c2C1c1ncc(C2CC2)cc1F (stereo not shown) [Example 16.2.2, 1-(9-(5-cyclopropyl-3-fluoropyridin-2-yl)-6,9-dihydropyrido[4′,3′:4,5]imidazo[1,2-b]pyridazin-8(7H)-yl)-2-((2-ethyl-6-methylpyridin-3-yl)oxy)ethan-1-one]	128	–
O=C(COc1cccnc1C(F)(F)F)N1CCc2nc3cccnn3c2C1c1ncc(C2CC2)cc1F (stereo not shown) [Example 16.2.3, 1-(9-(5-cyclopropyl-3-fluoropyridin-2-yl)-6,9-dihydropyrido[4′,3′:4,5]imidazo[1,2-b]pyridazin-8(7H)-yl)-2-((2-(trifluoromethyl)pyridin-3-yl)oxy)ethan-1-one]	144	–
O=C(COc1ccc(C(F)(F)F)cc1Cl)N1CCc2nc3cccnn3c2C1c1ncc(C2CC2)cc1F (stereo not shown) [Example 16.2.5, 2-(2-chloro-4-(trifluoromethyl)phenoxy)-1-(9-(5-cyclopropyl-3-fluoropyridin-2-yl)-6,9-dihydropyrido[4′,3′:4,5]imidazo[1,2-b]pyridazin-8(7H)-yl)ethan-1-one]	238	–
O=C(COc1ccc(C(F)(F)F)nc1Cl)N1CCc2nc3cccnn3c2C1c1ncc(C2CC2)cc1F (stereo not shown) [Example 16.2.6, 2-((2-chloro-6-(trifluoromethyl)pyridin-3-yl)oxy)-1-(9-(5-cyclopropyl-3-fluoropyridin-2-yl)-6,9-dihydropyrido[4′,3′:4,5]imidazo[1,2-b]pyridazin-8(7H)-yl)ethan-1-one]	290	–
CS(=O)(=O)Nc1ccc(OCC(=O)N2CCc3nc4cccnn4c3C2c2ccc(Cl)cc2F)c(Cl)n1 (stereo not shown) [Example 16.4.1, N-(6-chloro-5-(2-(9-(4-chloro-2-fluorophenyl)-6,9-dihydropyrido[4′,3′:4,5]imidazo[1,2-b]pyridazin-8(7H)-yl)-2-oxoethoxy)pyridin-2-yl)methanesulfonamide]	167	–
CS(=O)(=O)Nc1ccc(OCC(=O)N2CCc3nc4cnccn4c3C2c2ccc(Cl)cc2F)c(Cl)n1 (stereo not shown) [Example 17.2.1, N-(6-chloro-5-(2-(1-(4-chloro-2-fluorophenyl)-3,4-dihydropyrido[4′,3′:4,5]imidazo[1,2-a]pyrazin-2(1H)-yl)-2-oxoethoxy)pyridin-2-yl)methanesulfonamide]	214	–
CCc1nc(NS(C)(=O)=O)ccc1OCC(=O)N1CCc2nc3cnccn3c2C1c1sc(C)nc1C (stereo not shown) [Example 17.3.1, N-(5-(2-(1-(2,4-dimethylthiazol-5-yl)-3,4-dihydropyrido[4′,3′:4,5]imidazo[1,2-a]pyrazin-2(1H)-yl)-2-oxoethoxy)-6-ethylpyridin-2-yl)methanesulfonamide]	461	–
O=C(COc1ccc(N2CCOCC2)nc1Cl)N1CCc2nc3ncccn3c2C1c1ccc(C2CC2)cc1F (stereo not shown) [Example 18.1.1, 2-((2-chloro-6-morpholinopyridin-3-yl)oxy)-1-(6-(4-cyclopropyl-2-fluorophenyl)-8,9-dihydropyrido[4′,3′:4,5]imidazo[1,2-a]pyrimidin-7(6H)-yl)ethan-1-one]	56	–
Nc1nc(OC(c2ccc(-c3cccc(F)c3)cc2)C(F)(F)F)cc(-c2ccc(C[C@H](N)C(=O)O)cc2)n1 (stereo partly shown) [LP533401]	–	brain 5HT concentrations (5HT; brain): without effecting brain concentrations; gut 5HT (5HT; gut): lower gut 5HT

Further lines, with some results ahead:

IC50 (human TPH1) [nM]	Compound	further results
34	CCc1nc(NS(C)(=O)=O)ccc1OCC(=O)N1CCc2nc3ccc(F)cn3c2C1c1ccc(Cl)cc1F (stereo not shown) [Example 11.2.2, N-(5-(2-(1-(4-chloro-2-fluorophenyl)-8-fluoro-3,4-dihydroimidazo[1,2-a:5,4-c′]dipyridin-2(1H)-yl)-2-oxoethoxy)-6-ethylpyridin-2-yl)methanesulfonamide]	–
40	COc1ccc(C2c3c(nc4cc(Cl)c(C)cn34)CCN2C(=O)COc2ccc3ccccc3c2)cc1OC (stereo not shown) [Example 13.1.1, 1-(7-chloro-1-(3,4-dimethoxyphenyl)-8-methyl-3,4-dihydroimidazo[1,2-a:5,4-c′]dipyridin-2(1H)-yl)-2-(naphthalen-2-yloxy)ethan-1-one]	–
19	O=C(COc1ccc(N2CCOCC2)cc1Cl)N1CCc2nc3cccnn3c2C1c1ccc(C2CC2)cc1F (stereo not shown) [Example 16.1.1, 2-(2-chloro-4-morpholinophenoxy)-1-(9-(4-cyclopropyl-2-fluorophenyl)-6,9-dihydropyrido[4′,3′:4,5]imidazo[1,2-b]pyridazin-8(7H)-yl)ethan-1-one]	–
8	O=C(COc1ccc(N2CCOCC2)nc1Cl)N1CCc2nc3cccnn3c2C1c1ccc(C2CC2)cc1F (stereo not shown) [Example 16.1.2, 2-((2-chloro-6-morpholinopyridin-3-yl)oxy)-1-(9-(4-cyclopropyl-2-fluorophenyl)-6,9-dihydropyrido[4′,3′:4,5]imidazo[1,2-b]pyridazin-8(7H)-yl)ethan-1-one]	–
14	O=C(COc1ccc(N2CCOCC2)nc1Cl)N1CCc2nc3cccnn3c2C1c1ncc(C2CC2)cc1F (stereo not shown) [Example 16.2.1, 2-((2-chloro-6-morpholinopyridin-3-yl)oxy)-1-(9-(5-cyclopropyl-3-fluoropyridin-2-yl)-6,9-dihydropyrido[4′,3′:4,5]imidazo[1,2-b]pyridazin-8(7H)-yl)ethan-1-one]	–
43	CN(C)C(=O)c1csc(C2c3c(nc4cccnn34)CCN2C(=O)COc2ccc(N3CCOCC3)nc2Cl)c1 (stereo not shown) [Example 16.3.1, 5-(8-(2-((2-Chloro-6-morpholinopyridin-3-yl)oxy)acetyl)-6,7,8,9-tetrahydropyrido[4′,3′:4,5]imidazo[1,2-b]pyridazin-9-yl)-N,N-dimethylthiophene-3-carboxamide]	–
31	CCc1nc(NS(C)(=O)=O)ccc1OCC(=O)N1CCc2nc3cccnn3c2C1c1sc(C)nc1C (stereo not shown) [Example 16.5.1, N-(5-(2-(9-(2,4-dimethylthiazol-5-yl)-6,9-dihydropyrido[4′,3′:4,5]imidazo[1,2-b]pyridazin-8(7H)-yl)-2-oxoethoxy)-6-ethylpyridin-2-yl)methanesulfonamide]	–
29	O=C(COc1ccc(N2CCOCC2)nc1Cl)N1CCc2nc3cnccn3c2C1c1ccc(C2CC2)cc1F (stereo not shown) [Example 17.1.1, 2-((2-chloro-6-morpholinopyridin-3-yl)oxy)-1-(1-(4-cyclopropyl-2-fluorophenyl)-3,4-dihydropyrido[4′,3′:4,5]imidazo[1,2-a]pyrazin-2(1H)-yl)ethan-1-one]	–

— patent publication US20180155344A1, “TRICYCLIC PIPERIDINE COMPOUNDS” (ACTELION PHARMACEUTICALS LTD, priority 2015, published 2018)
